US5591773A, “Inhibition of cataract formation, diseases resulting from oxidative stress, and HIV replication by caffeic acid esters” (priority 1994, dated 1997)
“Also recorded” adds a separate entry of the source.

Key:
[1] = test system: TPA-induced cataracts in eyes of rabbits; test: TPA-induced cataracts in rabbits in vivo; parameters: species or system white New Zealand rabbits; details: daily TPA-containing drops, 6 week period
bovine lens (opacity) = details: 1 μM TPA; cited from earlier work
[2] = test system: ornithine decarboxylase (ODC); test: TPA-induced ornithine decarboxylase (ODC) in CD-1 mice; assay type: in vivo; details: CAPE 1 μmol, TPA 5 nmol, (76)
Procedure: (§1) A) Treatment of Animals and Assays. Female SENCAR (6-8 weeks old) and CD-1 mice (about 7 weeks old) were purchased from Biological Testing, National Cancer Institute (Frederick, Md.) and from Charles River Laboratory (Stone Ridge, N.Y.), respectively. The mice were acclimated for at least 1 week before use. They were subjected to a 12-h light/12-h dark cycle, housed at 20°±2° C. in a room with 10 cycles of air exchanges/h, given food and water ad libitum, and observed for any indication of ill health. Before topical application of any test agents, their backs were shaved and only those without hair growth after 48 h were used.

[3] = test system: oxidative burst of human PMNs; test: H2O2 formation by TPA-stimulated human PMNs (phenol red/HRPO); assay type: cell-based
Procedure: FIG. 4. CAPE-mediated inhibition of H2 O2 formation by TPA-stimulated human PMNs. Cells were incubated with CAPE (0.05-5 nmol/ml) and TPA (25 pmol/2.5×10^5 PMNs/ml) at 37° C. for 30 min, and H2 O2 was determined by the phenol red/HRPO assay, as described in the "Experimental Details" Section, infra. Note the semilog scale. The results are presented as mean values ±SE.
A) Human PMNS Blood was obtained from healthy volunteers and collected into EDTA-containing tubes. Red cells were removed by dextran sedimentation and lysis with hypotonic ammonium chloride, as described previously (5). Cells were washed in glucose-containing basic salt solution (137 mM NaCl, 5 mM KCl, 8.5 mM Na2 HPO4 -NaH2 PO4, 0.8 mM MgSO4, 5 mM glucose, pH 7.4) and suspended at a ratio of 10 ml of the initial blood volume/ml basic salt solution. Whole WBC population was used as a source of PMNs, with PMN numbers used per assay being adjusted according to the results of Wright's staining of the peripheral blood.
PMNs (2.5×10^5 /ml) were incubated with CAPE (0.05-5.0 nmol/ml) and/or TPA (25 pmol/ml) at 37° C. for 30 min in the presence of phenol red (100 μg) and HRPO (50 μg) (54). After the reaction was stopped with catalase (50 μg/ml), the pH was adjusted to 12.5 with NaOH, the mixture was centrifuged, and the absorbance of the supernatant was determined at 598 nm. […]

HIV integrase = details: cited from earlier work
[4] = test system: ornithine decarboxylase (ODC); test: TPA-induced ornithine decarboxylase (ODC) in SENCAR mice; assay type: in vivo; details: CAPE 10 μmol, TPA 4 nmol
Procedure: as §1

SMILES	alteration in lens transparency (in words) [1]	lens opacity (in words) (bovine lens (opacity))	inhibition of TPA-induced ODC [2] [%]	IC50 ([3]; 0.5 h, human PMNs 2.5×10^5/ml, TPA 25 pmol/ml, 37° C., 30 min, read-out: 50% inhibition of oxidative burst of PMNs (H2O2 production)) [nM]	inhibition of oxidative burst (in words) ([3]; CAPE 0.05-5.0 nmol/ml)	HIV integrase inhibition (in words) (HIV integrase)	inhibition of TPA-induced ODC [4] [%]
CCCCCCCCCCCCCC(=O)O[C@@H]1[C@@H](C)[C@@]2(O)[C@@H](C=C(CO)C[C@]3(O)C(=O)C(C)=C[C@@H]23)[C@@H]2C(C)(C)[C@]12OC(C)=O [TPA, 12-O-tetradecanoylphorbol-13-acetate]	failed to induce any visible alteration in the transparency of the lenses	even more pronounced; also recorded: causes its opacity					
O=C(/C=C/c1ccc(O)c(O)c1)OCCc1ccccc1 [CAPE, Caffeic acid phenethyl ester]			55	500	inhibited the oxidative burst of PMNs (as measured by H2 O2 production) in a dose-dependent manner	inhibits HIV integrase	62
